From ChEMBL document CHEMBL1140792, “Isothiazolidinone inhibitors of PTP1B containing imidazoles and imidazolines” (Bioorg Med Chem Lett, 2008)

Biological target: T1, Tyrosine-protein phosphatase non-receptor type 1 (Homo sapiens, UniProt P18031)
T1 sequence (P18031 whole entry): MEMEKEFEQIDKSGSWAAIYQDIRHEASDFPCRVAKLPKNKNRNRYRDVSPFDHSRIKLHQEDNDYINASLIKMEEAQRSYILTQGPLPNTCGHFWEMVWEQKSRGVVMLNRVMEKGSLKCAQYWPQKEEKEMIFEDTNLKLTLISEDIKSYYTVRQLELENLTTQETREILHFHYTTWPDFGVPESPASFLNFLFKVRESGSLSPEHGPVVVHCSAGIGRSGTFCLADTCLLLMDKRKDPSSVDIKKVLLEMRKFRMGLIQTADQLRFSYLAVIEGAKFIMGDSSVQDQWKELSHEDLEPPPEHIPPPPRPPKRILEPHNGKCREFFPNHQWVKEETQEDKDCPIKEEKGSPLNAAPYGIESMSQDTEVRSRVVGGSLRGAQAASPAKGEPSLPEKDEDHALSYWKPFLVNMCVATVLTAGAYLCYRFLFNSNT
Assay: Inhibition of PTP1B by pNPP assay

Row | SMILES | IC50 [nM]
1 | CC1(C)CN=C(C(Cc2ccc(C3CC(=O)NS3(=O)=O)cc2)NS(=O)(=O)c2cccc(C(F)(F)F)c2)N1 (configuration not stated) | 930
2 | O=C1CC(c2ccc(CC(NS(=O)(=O)c3cccc(F)c3)c3ncc(Cc4ccccc4)[nH]3)cc2)S(=O)(=O)N1 (configuration not stated) | 250
3 | O=C1CC(c2ccc(CC(NS(=O)(=O)c3cccc(C(F)(F)F)c3)C3=NCCN3)cc2)S(=O)(=O)N1 (configuration not stated) | 700
4 | O=C1CC(c2ccc(CC(NS(=O)(=O)c3cccc(C(F)(F)F)c3)C3=NC[C@H](c4ccccc4)N3)cc2)S(=O)(=O)N1 (some centres not stated) | 2900
5 | C[C@H]1CN=C(C(Cc2ccc(C3CC(=O)NS3(=O)=O)cc2)NS(=O)(=O)c2cccc(C(F)(F)F)c2)N1 (some centres not stated) | 810
6 | Cc1cc(CC(NS(=O)(=O)c2cccc(F)c2)C2=NC[C@@H](COc3cccc(S(C)(=O)=O)c3)N2)ccc1C1CC(=O)NS1(=O)=O (some centres not stated) | 800
7 | O=C1CC(c2ccc(CC(NS(=O)(=O)c3cccc(C(F)(F)F)c3)C3=NC[C@@H](c4ccccc4)N3)cc2)S(=O)(=O)N1 (some centres not stated) | 660
8 | O=C1CC(c2ccc(CC(NS(=O)(=O)c3cccc(C(F)(F)F)c3)C3=NC[C@H](Cc4ccccc4)N3)cc2)S(=O)(=O)N1 (some centres not stated) | 1300
9 | O=C1CC(c2ccc(CC(NS(=O)(=O)c3cccc(C(F)(F)F)c3)c3ncc[nH]3)cc2)S(=O)(=O)N1 (configuration not stated) | 240
10 | Cc1cc(CC(NS(=O)(=O)c2cccc(F)c2)c2ncc(CCCOc3cccc(O)c3C(=O)O)[nH]2)ccc1C1CC(=O)NS1(=O)=O (configuration not stated) | 120
11 | C[C@@H]1CN=C(C(Cc2ccc(C3CC(=O)NS3(=O)=O)cc2)NS(=O)(=O)c2cccc(C(F)(F)F)c2)N1 (some centres not stated) | 540
12 | NC(=O)C(Cc1ccc(C2CC(=O)NS2(=O)=O)cc1)NS(=O)(=O)c1cccc(C(F)(F)F)c1 (configuration not stated) | 5030
13 | COC(=O)c1c(O)cccc1OCCCc1cnc(C(Cc2ccc(C3CC(=O)NS3(=O)=O)c(C)c2)NS(=O)(=O)c2cccc(F)c2)[nH]1 (configuration not stated) | 350

Next, values leading:

Row | IC50 [nM] | SMILES
14 | 160 | COC(=O)c1c(O)cccc1OCCCCc1cnc(C(Cc2ccc(C3CC(=O)NS3(=O)=O)c(C)c2)NS(=O)(=O)c2cccc(F)c2)[nH]1 (configuration not stated)
15 | 200 | O=C1CC(c2ccc(CC(NS(=O)(=O)c3cccc(C(F)(F)F)c3)c3ncc(CCCCc4ccccc4)[nH]3)cc2)S(=O)(=O)N1 (configuration not stated)
16 | 170 | O=C1CC(c2ccc(CC(NS(=O)(=O)c3cccc(C(F)(F)F)c3)c3ncc(CCc4ccccc4)[nH]3)cc2)S(=O)(=O)N1 (configuration not stated)
17 | 150 | O=C1CC(c2ccc(CC(NS(=O)(=O)c3cccc(C(F)(F)F)c3)C3=NC[C@@H](Cc4ccccc4)N3)cc2)S(=O)(=O)N1 (some centres not stated)
18 | 180 | O=C1CC(c2ccc(CC(NS(=O)(=O)c3cccc(F)c3)c3ncc(CCc4ccccc4)[nH]3)cc2)S(=O)(=O)N1 (configuration not stated)
19 | 160 | Cc1cc(CC(NS(=O)(=O)c2cccc(F)c2)C2=NC[C@@H](CCCOc3cccc(S(C)(=O)=O)c3)N2)ccc1C1CC(=O)NS1(=O)=O (some centres not stated)
20 | 260 | O=C1CC(c2ccc(CC(NS(=O)(=O)c3cccc(F)c3)c3ncc(CCCCc4ccccc4)[nH]3)cc2)S(=O)(=O)N1 (configuration not stated)
21 | 110 | COC(=O)c1c(O)cccc1OCCCC[C@@H]1CN=C(C(Cc2ccc(C3CC(=O)NS3(=O)=O)c(C)c2)NS(=O)(=O)c2cccc(F)c2)N1 (some centres not stated)
22 | 23 | Cc1cc(CC(NS(=O)(=O)c2cccc(F)c2)C2=NC[C@@H](CCOc3cccc(S(C)(=O)=O)c3)N2)ccc1C1CC(=O)NS1(=O)=O (some centres not stated)
23 | 210 | O=C1CC(c2ccc(CC(NS(=O)(=O)c3cccc(F)c3)C3=NC[C@@H](Cc4ccccc4)N3)cc2)S(=O)(=O)N1 (some centres not stated)
24 | 52 | O=C1CC(c2ccc(CC(NS(=O)(=O)c3cccc(C(F)(F)F)c3)c3ncc(CCCc4ccccc4)[nH]3)cc2)S(=O)(=O)N1 (configuration not stated)
25 | 160 | O=C1CC(c2ccc(CC(NS(=O)(=O)c3cccc(F)c3)c3nc(-c4ccccc4)c[nH]3)cc2)S(=O)(=O)N1 (configuration not stated)
26 | 130 | O=C1CC(c2ccc(CC(NS(=O)(=O)c3cccc(F)c3)C3=NC[C@@H](CCc4ccccc4)N3)cc2)S(=O)(=O)N1 (some centres not stated)
27 | 32 | Cc1cc(CC(NS(=O)(=O)c2cccc(F)c2)c2ncc(CCCCOc3cccc(O)c3C(=O)O)[nH]2)ccc1C1CC(=O)NS1(=O)=O (configuration not stated)
28 | 22 | Cc1cc(CC(NS(=O)(=O)c2cccc(F)c2)C2=NC[C@@H](CCCCOc3cccc(O)c3C(=O)O)N2)ccc1C1CC(=O)NS1(=O)=O (some centres not stated)

Biological target: T2, Tyrosine-protein phosphatase non-receptor type 2 (Homo sapiens, UniProt P17706)
T2 sequence (P17706 whole entry): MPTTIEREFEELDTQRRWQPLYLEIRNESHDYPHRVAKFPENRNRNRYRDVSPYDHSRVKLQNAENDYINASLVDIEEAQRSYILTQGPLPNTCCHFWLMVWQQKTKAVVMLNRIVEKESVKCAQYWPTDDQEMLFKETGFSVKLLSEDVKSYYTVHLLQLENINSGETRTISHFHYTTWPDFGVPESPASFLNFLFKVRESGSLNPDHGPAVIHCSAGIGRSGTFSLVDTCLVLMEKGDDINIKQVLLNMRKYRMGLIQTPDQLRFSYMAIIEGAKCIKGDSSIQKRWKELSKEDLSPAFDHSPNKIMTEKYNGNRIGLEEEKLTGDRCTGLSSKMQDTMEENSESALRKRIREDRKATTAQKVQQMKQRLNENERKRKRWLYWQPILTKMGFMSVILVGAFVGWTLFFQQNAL
Assay: Inhibition of TCPTP by pNPP assay

Row | SMILES | IC50 [nM]
29 | CC1(C)CN=C(C(Cc2ccc(C3CC(=O)NS3(=O)=O)cc2)NS(=O)(=O)c2cccc(C(F)(F)F)c2)N1 (configuration not stated) | 700
30 | O=C1CC(c2ccc(CC(NS(=O)(=O)c3cccc(F)c3)c3ncc(Cc4ccccc4)[nH]3)cc2)S(=O)(=O)N1 (configuration not stated) | 270
31 | O=C1CC(c2ccc(CC(NS(=O)(=O)c3cccc(C(F)(F)F)c3)C3=NCCN3)cc2)S(=O)(=O)N1 (configuration not stated) | 500
32 | O=C1CC(c2ccc(CC(NS(=O)(=O)c3cccc(C(F)(F)F)c3)C3=NC[C@H](c4ccccc4)N3)cc2)S(=O)(=O)N1 (some centres not stated) | 2070
33 | C[C@H]1CN=C(C(Cc2ccc(C3CC(=O)NS3(=O)=O)cc2)NS(=O)(=O)c2cccc(C(F)(F)F)c2)N1 (some centres not stated) | 670
34 | Cc1cc(CC(NS(=O)(=O)c2cccc(F)c2)C2=NC[C@@H](COc3cccc(S(C)(=O)=O)c3)N2)ccc1C1CC(=O)NS1(=O)=O (some centres not stated) | 470
35 | O=C1CC(c2ccc(CC(NS(=O)(=O)c3cccc(C(F)(F)F)c3)C3=NC[C@@H](c4ccccc4)N3)cc2)S(=O)(=O)N1 (some centres not stated) | 430
36 | O=C1CC(c2ccc(CC(NS(=O)(=O)c3cccc(C(F)(F)F)c3)C3=NC[C@H](Cc4ccccc4)N3)cc2)S(=O)(=O)N1 (some centres not stated) | 1100
37 | O=C1CC(c2ccc(CC(NS(=O)(=O)c3cccc(C(F)(F)F)c3)c3ncc[nH]3)cc2)S(=O)(=O)N1 (configuration not stated) | 270
38 | Cc1cc(CC(NS(=O)(=O)c2cccc(F)c2)c2ncc(CCCOc3cccc(O)c3C(=O)O)[nH]2)ccc1C1CC(=O)NS1(=O)=O (configuration not stated) | 170
39 | O=C1CC(c2ccc(CC(NS(=O)(=O)c3cccc(C(F)(F)F)c3)c3ncc(Cc4ccccc4)[nH]3)cc2)S(=O)(=O)N1 (configuration not stated) | 230
40 | C[C@@H]1CN=C(C(Cc2ccc(C3CC(=O)NS3(=O)=O)cc2)NS(=O)(=O)c2cccc(C(F)(F)F)c2)N1 (some centres not stated) | 420
41 | NC(=O)C(Cc1ccc(C2CC(=O)NS2(=O)=O)cc1)NS(=O)(=O)c1cccc(C(F)(F)F)c1 (configuration not stated) | 5000
42 | COC(=O)c1c(O)cccc1OCCCc1cnc(C(Cc2ccc(C3CC(=O)NS3(=O)=O)c(C)c2)NS(=O)(=O)c2cccc(F)c2)[nH]1 (configuration not stated) | 170

Continued, values first:

Row | IC50 [nM] | SMILES
43 | 170 | COC(=O)c1c(O)cccc1OCCCCc1cnc(C(Cc2ccc(C3CC(=O)NS3(=O)=O)c(C)c2)NS(=O)(=O)c2cccc(F)c2)[nH]1 (configuration not stated)
44 | 160 | O=C1CC(c2ccc(CC(NS(=O)(=O)c3cccc(C(F)(F)F)c3)c3ncc(CCCCc4ccccc4)[nH]3)cc2)S(=O)(=O)N1 (configuration not stated)
45 | 170 | O=C1CC(c2ccc(CC(NS(=O)(=O)c3cccc(C(F)(F)F)c3)c3ncc(CCc4ccccc4)[nH]3)cc2)S(=O)(=O)N1 (configuration not stated)
46 | 120 | O=C1CC(c2ccc(CC(NS(=O)(=O)c3cccc(C(F)(F)F)c3)C3=NC[C@@H](Cc4ccccc4)N3)cc2)S(=O)(=O)N1 (some centres not stated)
47 | 24 | O=C1CC(c2ccc(CC(NS(=O)(=O)c3cccc(F)c3)c3ncc(CCCc4ccccc4)[nH]3)cc2)S(=O)(=O)N1 (configuration not stated)
48 | 100 | O=C1CC(c2ccc(CC(NS(=O)(=O)c3cccc(F)c3)c3ncc(CCc4ccccc4)[nH]3)cc2)S(=O)(=O)N1 (configuration not stated)
49 | 84 | Cc1cc(CC(NS(=O)(=O)c2cccc(F)c2)C2=NC[C@@H](CCCOc3cccc(S(C)(=O)=O)c3)N2)ccc1C1CC(=O)NS1(=O)=O (some centres not stated)
50 | 61 | O=C1CC(c2ccc(CC(NS(=O)(=O)c3cccc(C(F)(F)F)c3)c3ncc(-c4ccccc4)[nH]3)cc2)S(=O)(=O)N1 (configuration not stated)
51 | 110 | O=C1CC(c2ccc(CC(NS(=O)(=O)c3cccc(F)c3)c3ncc(CCCCc4ccccc4)[nH]3)cc2)S(=O)(=O)N1 (configuration not stated)
52 | 65 | COC(=O)c1c(O)cccc1OCCCC[C@@H]1CN=C(C(Cc2ccc(C3CC(=O)NS3(=O)=O)c(C)c2)NS(=O)(=O)c2cccc(F)c2)N1 (some centres not stated)
53 | 25 | Cc1cc(CC(NS(=O)(=O)c2cccc(F)c2)C2=NC[C@@H](CCOc3cccc(S(C)(=O)=O)c3)N2)ccc1C1CC(=O)NS1(=O)=O (some centres not stated)
54 | 140 | O=C1CC(c2ccc(CC(NS(=O)(=O)c3cccc(F)c3)C3=NC[C@@H](Cc4ccccc4)N3)cc2)S(=O)(=O)N1 (some centres not stated)
55 | 51 | O=C1CC(c2ccc(CC(NS(=O)(=O)c3cccc(C(F)(F)F)c3)c3ncc(CCCc4ccccc4)[nH]3)cc2)S(=O)(=O)N1 (configuration not stated)
56 | 43 | O=C1CC(c2ccc(CC(NS(=O)(=O)c3cccc(C(F)(F)F)c3)c3nc4ccccc4[nH]3)cc2)S(=O)(=O)N1 (configuration not stated)
57 | 90 | O=C1CC(c2ccc(CC(NS(=O)(=O)c3cccc(F)c3)c3nc(-c4ccccc4)c[nH]3)cc2)S(=O)(=O)N1 (configuration not stated)
58 | 68 | O=C1CC(c2ccc(CC(NS(=O)(=O)c3cccc(F)c3)C3=NC[C@@H](CCc4ccccc4)N3)cc2)S(=O)(=O)N1 (some centres not stated)
59 | 46 | Cc1cc(CC(NS(=O)(=O)c2cccc(F)c2)c2ncc(CCCCOc3cccc(O)c3C(=O)O)[nH]2)ccc1C1CC(=O)NS1(=O)=O (configuration not stated)
60 | 46 | Cc1cc(CC(NS(=O)(=O)c2cccc(F)c2)C2=NC[C@@H](CCCCOc3cccc(O)c3C(=O)O)N2)ccc1C1CC(=O)NS1(=O)=O (some centres not stated)
61 | 38 | O=C1CC(c2ccc(CC(NS(=O)(=O)c3cccc(F)c3)C3=NC[C@@H](Cc4ccccc4F)N3)cc2)S(=O)(=O)N1 (some centres not stated)

Tested on: not listed separately
Assay: Selectivity for PTP1B over TCPTP

Row | Ratio IC50 | SMILES
62 | 2 | Cc1cc(CC(NS(=O)(=O)c2cccc(F)c2)C2=NC[C@@H](CCCCOc3cccc(O)c3C(=O)O)N2)ccc1C1CC(=O)NS1(=O)=O (some centres not stated)
